Experiments:
Type in all cases: biochemical
[1] = molecular target: CDK4/cyclin D1 (Homo sapiens, UniProt P11802); test: Kinase assay CDK4/cyclin D1; conditions: Ki calculated (Cheng-Prusoff) from experimentally determined IC50 and Km,ATP; read-out: Kinase Inhibition Ki CDK4 - cyclin D1
Experimental: (§1) The compounds from the examples above were investigated for their ability to inhibit the enzymatic activity of various protein kinases. This was achieved by measurement of incorporation of radioactive phosphate from ATP into appropriate polypeptide substrates. Recombinant protein kinases and kinase complexes were produced or obtained commercially. Assays were performed using 96-well plates and appropriate assay buffers (typically 25 mM β-glycerophosphate, 20 mM MOPS, 5 mM EGTA, 1 mM DTT, 1 mM […], pH 7.4), into which were added 2-4 μg of active enzyme with appropriate substrates. The reactions were initiated by addition of Mg/ATP mix (15 mM MgCl2+100 μM ATP with 30-50 kBq per well of [γ-^32P]-ATP) and mixtures incubated as required at 30° C. Reactions were stopped on ice, followed by filtration through p81 filterplates or GF/C filterplates (Whatman Polyfiltronics, Kent, UK). After washing 3 times with 75 mM aq orthophosphoric acid, plates were dried, scintillant added and incorporated radioactivity measured in a scintillation counter (TopCount, Packard Instruments, Pangbourne, Berks, UK). Compounds for kinase assay were made up as 10 mM stocks in DMSO and diluted into 10% DMSO in assay buffer.

[2] = molecular target: CDK7/cyclin H (Homo sapiens, UniProt P50613); test: Kinase assay CDK7/cyclin H; conditions: Ki calculated (Cheng-Prusoff) from experimentally determined IC50 and Km,ATP; read-out: Kinase Inhibition Ki CDK7 - cyclin H
Sequence of CDK7/cyclin H (P50613 whole entry, species assumed): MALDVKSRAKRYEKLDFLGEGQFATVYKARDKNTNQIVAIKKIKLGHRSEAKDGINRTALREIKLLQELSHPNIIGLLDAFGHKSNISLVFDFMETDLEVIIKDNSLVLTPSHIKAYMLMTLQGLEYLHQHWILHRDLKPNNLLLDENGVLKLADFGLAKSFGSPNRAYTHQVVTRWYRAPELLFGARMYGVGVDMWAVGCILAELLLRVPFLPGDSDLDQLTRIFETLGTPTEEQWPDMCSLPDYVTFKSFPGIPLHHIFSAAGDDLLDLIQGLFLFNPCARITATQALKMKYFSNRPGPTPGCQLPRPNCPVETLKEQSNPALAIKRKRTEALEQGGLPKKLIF
Sequence of CDK7/cyclin H (P51946 whole entry partner, species assumed): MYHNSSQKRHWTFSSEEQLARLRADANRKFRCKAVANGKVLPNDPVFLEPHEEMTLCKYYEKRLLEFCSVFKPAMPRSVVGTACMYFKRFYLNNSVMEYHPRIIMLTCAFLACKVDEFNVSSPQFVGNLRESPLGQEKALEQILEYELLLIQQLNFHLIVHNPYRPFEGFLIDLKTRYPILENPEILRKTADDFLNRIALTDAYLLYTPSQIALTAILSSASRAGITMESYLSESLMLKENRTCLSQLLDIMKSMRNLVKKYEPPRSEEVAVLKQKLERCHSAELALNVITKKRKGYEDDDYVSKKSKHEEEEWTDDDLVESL
Experimental: as §1

[3] = molecular target: CDK1/cyclin B (Homo sapiens, UniProt P06493); test: Kinase assay CDK1/cyclin B (radioactive phosphate incorporation); conditions: Ki calculated (Cheng-Prusoff) from experimentally determined IC50 and Km,ATP; read-out: Kinase Inhibition Ki CDK1 - cyclin B
Sequence of CDK1/cyclin B (P06493 whole entry, species assumed): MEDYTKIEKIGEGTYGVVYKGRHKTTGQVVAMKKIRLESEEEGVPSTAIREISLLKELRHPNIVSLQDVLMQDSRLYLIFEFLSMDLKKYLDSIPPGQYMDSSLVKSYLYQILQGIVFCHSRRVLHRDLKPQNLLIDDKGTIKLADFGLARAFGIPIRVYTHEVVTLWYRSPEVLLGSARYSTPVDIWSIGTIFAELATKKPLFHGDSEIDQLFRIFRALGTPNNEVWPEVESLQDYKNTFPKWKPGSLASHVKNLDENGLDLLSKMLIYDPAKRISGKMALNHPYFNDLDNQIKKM
Sequence of CDK1/cyclin B (P14635 whole entry partner, species assumed): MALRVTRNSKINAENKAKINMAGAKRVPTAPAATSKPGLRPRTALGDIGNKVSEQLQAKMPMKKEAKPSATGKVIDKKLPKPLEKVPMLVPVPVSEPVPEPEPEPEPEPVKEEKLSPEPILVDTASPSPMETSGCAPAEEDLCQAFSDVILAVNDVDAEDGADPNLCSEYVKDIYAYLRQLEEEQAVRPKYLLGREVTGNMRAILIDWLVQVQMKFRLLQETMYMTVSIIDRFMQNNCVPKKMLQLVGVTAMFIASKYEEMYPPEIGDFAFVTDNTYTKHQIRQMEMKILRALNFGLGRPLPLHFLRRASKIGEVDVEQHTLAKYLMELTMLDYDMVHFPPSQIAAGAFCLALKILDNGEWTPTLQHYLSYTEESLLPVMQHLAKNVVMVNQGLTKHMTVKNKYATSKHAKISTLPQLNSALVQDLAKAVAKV
Experimental: as §1, with “The reactions were initiated by addition of Mg/ATP mix (15 mM MgCl2+100 μM ATP with 30-50 kBq per well of [γ-^32P]-ATP) and mixtures incubated as required at 30° C.” left out

[4] = molecular target: CDK2/cyclin A (Homo sapiens, UniProt P24941); test: Kinase assay CDK2/cyclin A; conditions: Ki calculated (Cheng-Prusoff) from experimentally determined IC50 and Km,ATP; read-out: Kinase Inhibition Ki CDK2 - cyclin A
Experimental: as §1, with “The reactions were initiated by addition of Mg/ATP mix (15 mM MgCl2+100 μM ATP with 30-50 kBq per well of [γ-^32P]-ATP) and mixtures incubated as required at 30° C.” left out

[5] = molecular target: CDK9/cyclin T1 (Homo sapiens, UniProt P50750); test: Kinase assay CDK9/cyclin T1; conditions: Ki calculated (Cheng-Prusoff) from experimentally determined IC50 and Km,ATP; read-out: Kinase Inhibition Ki CDK9 - cyclin T1
Sequence of CDK9/cyclin T1 (P50750 whole entry, species assumed): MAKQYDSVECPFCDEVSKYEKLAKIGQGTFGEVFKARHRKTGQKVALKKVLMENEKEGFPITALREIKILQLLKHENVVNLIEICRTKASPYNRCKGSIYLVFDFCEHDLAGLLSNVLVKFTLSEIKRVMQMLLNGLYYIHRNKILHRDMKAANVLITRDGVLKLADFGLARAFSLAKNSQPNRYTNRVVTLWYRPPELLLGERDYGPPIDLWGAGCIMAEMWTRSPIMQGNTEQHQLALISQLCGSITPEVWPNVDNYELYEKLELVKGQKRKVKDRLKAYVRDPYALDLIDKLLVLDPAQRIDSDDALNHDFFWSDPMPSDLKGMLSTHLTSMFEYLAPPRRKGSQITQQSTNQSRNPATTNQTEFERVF
Sequence of CDK9/cyclin T1 (O60563 whole entry partner, species assumed): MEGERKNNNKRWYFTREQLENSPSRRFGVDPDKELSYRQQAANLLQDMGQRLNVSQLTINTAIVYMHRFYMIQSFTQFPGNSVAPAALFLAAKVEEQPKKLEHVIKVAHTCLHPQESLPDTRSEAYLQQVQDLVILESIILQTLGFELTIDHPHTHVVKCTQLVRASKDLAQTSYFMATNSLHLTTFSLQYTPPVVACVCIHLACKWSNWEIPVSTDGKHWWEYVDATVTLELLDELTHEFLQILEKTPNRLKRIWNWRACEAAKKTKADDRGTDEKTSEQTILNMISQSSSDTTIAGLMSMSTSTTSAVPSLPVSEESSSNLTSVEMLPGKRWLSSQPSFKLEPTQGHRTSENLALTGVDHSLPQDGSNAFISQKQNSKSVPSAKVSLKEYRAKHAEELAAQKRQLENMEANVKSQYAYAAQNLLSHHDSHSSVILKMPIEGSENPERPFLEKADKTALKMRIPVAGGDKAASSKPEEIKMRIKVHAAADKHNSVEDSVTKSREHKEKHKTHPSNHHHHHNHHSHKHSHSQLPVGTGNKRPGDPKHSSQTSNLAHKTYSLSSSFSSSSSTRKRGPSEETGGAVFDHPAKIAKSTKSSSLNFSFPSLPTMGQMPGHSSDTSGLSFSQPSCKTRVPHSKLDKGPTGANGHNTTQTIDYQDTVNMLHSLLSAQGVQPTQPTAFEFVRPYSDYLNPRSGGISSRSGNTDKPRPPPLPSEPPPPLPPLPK
Experimental: as §1

[6] = molecular target: CDK2/cyclin E (Homo sapiens, UniProt P24941); test: Kinase assay CDK2/cyclin E; conditions: Ki calculated (Cheng-Prusoff) from experimentally determined IC50 and Km,ATP; read-out: Kinase Inhibition Ki CDK2 - cyclin E
Experimental: as §1, with “The reactions were initiated by addition of Mg/ATP mix (15 mM MgCl2+100 μM ATP with 30-50 kBq per well of [γ-^32P]-ATP) and mixtures incubated as required at 30° C.” left out

[7] = molecular target: T1, GSK3β (Homo sapiens, UniProt P49841); test: GSK3β in vitro kinase assay; conditions: recombinant human GSK3β, 100 μM ATP
T1 construct: purchased New England Biolabs
T1 sequence (P49841 whole entry): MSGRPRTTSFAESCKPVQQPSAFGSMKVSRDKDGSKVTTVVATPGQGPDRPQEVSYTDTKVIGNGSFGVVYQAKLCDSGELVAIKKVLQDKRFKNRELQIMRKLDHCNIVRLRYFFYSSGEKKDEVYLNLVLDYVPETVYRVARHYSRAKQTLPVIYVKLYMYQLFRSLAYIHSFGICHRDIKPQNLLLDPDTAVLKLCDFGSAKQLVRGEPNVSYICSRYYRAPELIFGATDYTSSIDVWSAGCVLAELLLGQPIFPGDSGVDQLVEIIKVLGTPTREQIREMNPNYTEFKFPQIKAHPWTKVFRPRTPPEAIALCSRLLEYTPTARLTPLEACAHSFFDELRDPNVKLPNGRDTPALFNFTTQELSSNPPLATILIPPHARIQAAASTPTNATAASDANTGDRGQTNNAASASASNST
Experimental: Both isoforms of GSK3 (α and β) are involved in the regulation of glycogen synthase activity—key enzyme in the glycogen metabolism.
A 10-point titration was set up to determine the IC50 values of selected example compounds against GSK3β. Assays were performed using 96-well microtiter plates with a final volume of 25 μL per well. Each assay contained 1.5 units of GSK3β(New England Biolabs), 200 μM CREB phosphopeptide ([…]pSYR, Alta Biosciences), 20 mM Tris HCl pH7.5, 5 mM DTT, 15 mM MgCl2 supplemented with 100 μM ATP and 0.5 μCi of [γ-^32P] ATP plus or minus inhibitor in 2% DMSO. Assays were carried out for 30 minutes at 30° C. before stopping the reaction by the addition of an equal volume of 75 mM aqueous phosphoric acid. Samples were then spotted onto a p81 filterplate (Whatman) and a vacuum was applied. Wells were washed 3 times with 200 μL of dilute aqueous phosphoric acid before the addition of 50 μL Microscint 40 per well. Incorporation of radioactivity was determined on a Topcount microplate scintillation counter (Packard).

Sequence of CDK4/cyclin D1 (P11802 whole entry, species assumed): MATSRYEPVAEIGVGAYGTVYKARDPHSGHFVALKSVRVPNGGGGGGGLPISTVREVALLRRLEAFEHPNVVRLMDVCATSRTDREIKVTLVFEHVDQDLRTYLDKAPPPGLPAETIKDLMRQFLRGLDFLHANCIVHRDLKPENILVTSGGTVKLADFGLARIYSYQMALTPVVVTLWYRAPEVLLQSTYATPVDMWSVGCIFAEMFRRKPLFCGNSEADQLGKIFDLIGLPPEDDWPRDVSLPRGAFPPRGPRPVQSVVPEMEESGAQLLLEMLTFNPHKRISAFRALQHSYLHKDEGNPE
Sequence of CDK4/cyclin D1 (P24385 whole entry partner, species assumed): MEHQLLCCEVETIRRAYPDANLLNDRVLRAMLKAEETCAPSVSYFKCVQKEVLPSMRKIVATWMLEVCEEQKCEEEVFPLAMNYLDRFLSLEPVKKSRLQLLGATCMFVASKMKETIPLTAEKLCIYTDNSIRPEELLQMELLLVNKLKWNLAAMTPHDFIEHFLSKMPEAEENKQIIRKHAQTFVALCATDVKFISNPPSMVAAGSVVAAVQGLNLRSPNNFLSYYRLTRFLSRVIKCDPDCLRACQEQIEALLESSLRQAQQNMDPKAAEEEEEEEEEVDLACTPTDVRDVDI

Compound	Ki [1] [µM]	Ki [2] [µM]	Ki [3] [µM]	Ki [4] [µM]	Ki [5] [µM]	Ki [6] [µM]	IC50 [7] [µM]
Cc1ccc(Nc2nccc(-c3sc(=O)n(C)c3C)n2)cc1N [Compound 39, 5-[2-(3-Amino-4-methyl-phenylamino)-pyrimidin-4-yl]-3,4-dimethyl-3H-thiazol-2-one]	0.15	0.6	0.064	0.0086	0.014	0.098	–
Cc1ccc(Nc2nccc(-c3sc(=O)n(C)c3C)n2)cc1I [Compound 14, 5-[2-(3-Iodo-4-methyl-phenylamino)-pyrimidin-4-yl]-3,4-dimethyl-3H-thiazol-2-one]	2.1	–	0.7	0.84	0.035	0.35	–
Cc1c(-c2ccnc(Nc3ccc(N(C)C)cc3)n2)sc(=O)n1C [Compound 8, 5-[2-(4-Dimethylamino-phenylamino)-pyrimidin-4-yl]-3,4-dimethyl-3H-thiazol-2-one]	0.53	0.86	0.75	0.2	0.041	0.75	–
COc1ccc(Nc2nccc(-c3sc(=O)n(CCC(C)C)c3C)n2)cn1 [Compound 35, 5-[2-(6-Methoxy-pyridin-3-ylamino)-pyrimidin-4-yl]-4-methyl-3-(3-methyl-butyl)-3H-thiazol-2-one]	2	0.2	2.6	0.19	0.49	0.66	–
Cc1c(-c2ccnc(Nc3cccc(O)c3)n2)sc(=O)n1C [Compound 7, 5-[2-(3-Hydroxy-phenylamino)-pyrimidin-4-yl]-3,4-dimethyl-3H-thiazol-2-one]	0.54	0.62	0.13	0.025	–	0.043	–
CCn1c(C)c(-c2ccnc(Nc3ccc(Cl)c(C(F)(F)F)c3)n2)sc1=O [Compound 48, 5-[2-(4-Chloro-3-trifluoromethyl-phenylamino)-pyrimidin-4-yl]-3-ethyl-4-methyl-3H-thiazol-2-one]	–	–	–	–	0.23	–	0.0619
CCn1c(C)c(-c2ccnc(Nc3ccc(Cl)c(C)c3)n2)sc1=O [Compound 51, 5-[2-(4-Chloro-3-methyl-phenylamino)-pyrimidin-4-yl]-3-ethyl-4-methyl-3H-thiazol-2-one]	–	0.97	2.1	–	0.19	0.27	0.542
COc1ccc(Nc2nccc(-c3sc(=O)n(C)c3C)n2)cc1 [Compound 6, 5-[2-(4-Methoxy-phenylamino)-pyrimidin-4-yl]-3,4-dimethyl-3H-thiazol-2-one]	0.57	0.92	0.26	0.19	–	0.38	–
Cc1ccc(Nc2nccc(-c3sc(=O)[nH]c3C)n2)cc1[N+](=O)[O-] [Compound 41, 4-Methyl-5-[2-(4-methyl-3-nitro-phenylamino)-pyrimidin-4-yl]-3H-thiazol-2-one]	0.13	0.29	0.049	0.023	0.0089	0.012	–
Cc1c(-c2ccnc(Nc3ccc(Cl)c(CO)c3)n2)sc(=O)n1C [Compound 18, 5-[2-(4-Chloro-3-hydroxymethyl-phenylamino)-pyrimidin-4-yl]-3,4-dimethyl-3H-thiazol-2-one]	0.17	0.028	0.022	0.059	0.0012	0.028	–
CCn1c(C)c(-c2ccnc(Nc3cccc(S(=O)(=O)O)c3)n2)sc1=O [Compound 54, 3-[4-(3-Ethyl-4-methyl-2-oxo-2,3-dihydro-thiazol-5-yl)-pyrimidin-2-ylamino]-benzenesulfonic acid]	–	–	–	–	–	–	0.158
Cc1c(-c2ccnc(Nc3ccc(N4CCOCC4)cc3)n2)sc(=O)n1C [Compound 9, 3,4-Dimethyl-5-[2-(4-morpholin-4-yl-phenylamino)-pyrimidin-4-yl]-3H-thiazol-2-one]	0.67	1.3	5.2	0.17	–	0.59	–
Cc1c(-c2ccnc(Nc3ccc(F)c([N+](=O)[O-])c3)n2)sc(=O)n1C [Compound 10, 5-[2-(4-Fluoro-3-nitro-phenylamino)-pyrimidin-4-yl]-3,4-dimethyl-3H-thiazol-2-one]	0.99	0.52	0.28	0.021	–	0.13	–
CCn1c(C)c(-c2ccnc(Nc3ccc(N(C)C)cc3)n2)sc1=O [Compound 26, 5-[2-(4-Dimethylamino-phenylamino)-pyrimidin-4-yl]-3-ethyl-4-methyl-3H-thiazol-2-one]	0.28	0.22	7	0.15	0.69	0.29	–
CC(=O)N1CCN(c2ccc(Nc3nccc(-c4sc(=O)n(C)c4C)n3)cc2)CC1 [Compound 17, 5-{2-[4-(4-Acetyl-piperazin-1-yl)-phenylamino]-pyrimidin-4-yl}-3,4-dimethyl-3H-thiazol-2-one]	0.19	0.51	6.9	0.18	0.077	0.26	–
Cc1c(-c2ccnc(Nc3ccc(Cl)cc3)n2)sc(=O)n1C [Compound 4, 5-[2-(4-Chloro-phenylamino)-pyrimidin-4-yl]-3,4-dimethyl-3H-thiazol-2-one]	1.6	4.1	0.46	0.2	–	0.13	–
Cc1c(-c2ccnc(Nc3cccc([N+](=O)[O-])c3)n2)sc(=O)n1CCC(C)C [Compound 30, 4-Methyl-3-(3-methyl-butyl)-5-[2-(3-nitro-phenylamino)-pyrimidin-4-yl]-3H-thiazol-2-one]	21	0.031	0.67	0.56	0.19	0.29	–
Cc1[nH]c(=O)sc1-c1ccnc(Nc2cccc([N+](=O)[O-])c2)n1 [Compound 40, 4-Methyl-5-[2-(3-nitro-phenylamino)-pyrimidin-4-yl]-3H-thiazol-2-one]	0.23	0.071	0.017	0.011	0.0024	0.0032	–
Cc1c(-c2ccnc(Nc3ccc(N4CCN(C)CC4)cc3)n2)sc(=O)n1C [Compound 13, 3,4-Dimethyl-5-{2-[4-(4-methyl-piperazin-1-yl)-phenylamino]-pyrimidin-4-yl}-3H-thiazol-2-one]	0.27	0.17	1.5	0.23	0.093	0.53	–
CCn1c(C)c(-c2ccnc(Nc3ccc(Cl)c(C(=O)O)c3)n2)sc1=O [Compound 24, 2-Chloro-5-[4-(3-ethyl-4-methyl-2-oxo-2,3-dihydro-thiazol-5-yl)-pyrimidin-2-ylamino]-benzoic acid]	24	–	6.3	1.1	0.37	1.9	–

Reference: patent publication US7902361B2, “Pyrimidin-4-yl-3, 4-thione compounds and their use in therapy” (Cyclacel Limited, priority 2003, dated 2011)
